Test results taken from publication PMC7148434, “ACE-domain selectivity extends beyond direct interacting residues at the active site” (Biochemical Journal, 2020).
Square brackets hold non-standard residues; d marks the D form. Ends that are not written are not given here. * marks the point of attachment. Dnp = O=[N+]([O-])c1ccc(*)c([N+](=O)[O-])c1; 2Abz = Nc1ccccc1C(=O)O

B1: Abz-FRK(Dnp)P-OH (peptide)
peptide: [2Abz]FRK(Dnp)P-OH
modifications: N-terminus assumed
SMILES: N=C(N)NCCC[C@H](NC(=O)[C@H](Cc1ccccc1)NC(=O)c1ccccc1N)C(=O)N[C@@H](CCCCNc1ccc([N+](=O)[O-])cc1[N+](=O)[O-])C(=O)N1CCC[C@H]1C(=O)O

How the values were obtained:
[1] = molecular target: S′-nACE (S260T, E262S, D354E, S357V, T358V and E431D) (Homo sapiens, UniProt P12821, D383E/E291S/E460D/S289T/S386V/T387V); experiment: Inhibitor binding kinetics, modified Abz-FRK(Dnp)P-OH assay, S′ mutant; type: biochemical; details: for decrease in binding affinity compared with nACE: S′-nACE relative to nACE; for Selectivity (Ki cACE/Ki nACE or mutant): Ki cACE / Ki S′-nACE; for Ki: S′-nACE, Morrison plot, 50 mM HEPES pH 6.8, 200 mM NaCl, 10 μM ZnCl2, mean ± SD
S′-nACE (S260T, E262S, D354E, S357V, T358V and E431D), sequence (P12821 40-624 S289T/E291S/D383E/S386V/T387V/E460D): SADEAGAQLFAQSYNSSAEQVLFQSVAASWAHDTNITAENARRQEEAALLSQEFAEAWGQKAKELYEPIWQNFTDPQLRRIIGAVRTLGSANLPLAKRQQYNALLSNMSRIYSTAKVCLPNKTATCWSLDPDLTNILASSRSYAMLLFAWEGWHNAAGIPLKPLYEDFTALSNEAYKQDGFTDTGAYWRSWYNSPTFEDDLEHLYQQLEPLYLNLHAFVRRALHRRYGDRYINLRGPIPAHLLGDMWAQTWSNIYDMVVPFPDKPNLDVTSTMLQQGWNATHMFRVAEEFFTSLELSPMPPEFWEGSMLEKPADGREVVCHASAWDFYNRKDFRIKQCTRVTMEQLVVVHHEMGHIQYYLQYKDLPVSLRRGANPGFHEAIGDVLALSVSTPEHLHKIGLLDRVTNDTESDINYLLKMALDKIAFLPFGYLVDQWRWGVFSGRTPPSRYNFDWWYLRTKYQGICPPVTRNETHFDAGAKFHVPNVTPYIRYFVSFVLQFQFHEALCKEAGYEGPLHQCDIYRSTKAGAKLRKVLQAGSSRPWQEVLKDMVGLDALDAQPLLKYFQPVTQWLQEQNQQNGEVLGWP
Description: (§1) Serial dilutions of an appropriate range were prepared for each inhibitor in the aforementioned assay buffer. An appropriate concentration of enzyme was similarly prepared and incubated with an equal volume of inhibitor for 15 min at 22°C after which 20 μl volumes of the reactions were aliquoted to a 96-well plate. […] Control (zero inhibitor) reactions containing the appropriate concentration of methanol or DMSO (in the case of ketoACE-13 or omapatrilat, respectively) were included to correct for any possible vehicle-induced effects on the reaction rate.

[2] = molecular target: S2-nACE (Y369F and R381E) (Homo sapiens, UniProt P12821, R410E/Y398F); experiment: Inhibitor binding kinetics, modified Abz-FRK(Dnp)P-OH assay, S2 mutant; type: biochemical; set-up: The truncated (single domain) wild-type N-domain (nACE), N-domain mutant constructs; made in house; host or cells: CHO-K1; details: for decrease in binding affinity compared with nACE: S2-nACE relative to nACE; for Selectivity (Ki cACE/Ki nACE or mutant): Ki cACE / Ki S2-nACE; for Ki: S2-nACE, Morrison plot, 50 mM HEPES pH 6.8, 200 mM NaCl, 10 μM ZnCl2, mean ± SD
S2-nACE (Y369F and R381E), sequence (P12821 40-624 Y398F/R410E): as the sequence (P12821 40-624 S289T/E291S/D383E/S386V/T387V/E460D) above, with T250S, S252E, E344D, V347S, V348T, Y359F, R371E, D421E counted along it
Description: as §1

[3] = molecular target: S2_S′-nACE (S260T, E262S, D354E, S357V, T358V, Y369F, R381E and E431D) (Homo sapiens, UniProt P12821, D383E/E291S/E460D/R410E/S289T/S386V/T387V/Y398F); experiment: Inhibitor binding kinetics, modified Abz-FRK(Dnp)P-OH assay, combined S2_S′ mutant; type: biochemical; set-up: The truncated (single domain) wild-type N-domain (nACE), N-domain mutant constructs; made in house; host or cells: CHO-K1; details: for binding affinity lower than that of cACE: S2_S′-nACE relative to cACE; for decrease in binding affinity compared with nACE: S2_S′-nACE relative to nACE; for Selectivity (Ki cACE/Ki nACE or mutant): Ki cACE / Ki S2_S′-nACE; for Ki: S2_S′-nACE, Morrison plot, 50 mM HEPES pH 6.8, 200 mM NaCl, 10 μM ZnCl2, mean ± SD
S2_S′-nACE (S260T, E262S, D354E, S357V, T358V, Y369F, R381E and E431D), sequence (P12821 40-624 S289T/E291S/D383E/S386V/T387V/Y398F/R410E/E460D): as the sequence (P12821 40-624 S289T/E291S/D383E/S386V/T387V/E460D) above, with Y359F, R371E counted along it
Description: as §1

cACE = cACE (Homo sapiens, UniProt P12821); experiment: Inhibitor binding kinetics, modified Abz-FRK(Dnp)P-OH assay, wild-type C-domain; type: biochemical; details: for Ki: cACE, Morrison plot, 50 mM HEPES pH 6.8, 200 mM NaCl, 10 μM ZnCl2, mean ± SD
cACE, sequence (P12821 643-1222 limits assumed): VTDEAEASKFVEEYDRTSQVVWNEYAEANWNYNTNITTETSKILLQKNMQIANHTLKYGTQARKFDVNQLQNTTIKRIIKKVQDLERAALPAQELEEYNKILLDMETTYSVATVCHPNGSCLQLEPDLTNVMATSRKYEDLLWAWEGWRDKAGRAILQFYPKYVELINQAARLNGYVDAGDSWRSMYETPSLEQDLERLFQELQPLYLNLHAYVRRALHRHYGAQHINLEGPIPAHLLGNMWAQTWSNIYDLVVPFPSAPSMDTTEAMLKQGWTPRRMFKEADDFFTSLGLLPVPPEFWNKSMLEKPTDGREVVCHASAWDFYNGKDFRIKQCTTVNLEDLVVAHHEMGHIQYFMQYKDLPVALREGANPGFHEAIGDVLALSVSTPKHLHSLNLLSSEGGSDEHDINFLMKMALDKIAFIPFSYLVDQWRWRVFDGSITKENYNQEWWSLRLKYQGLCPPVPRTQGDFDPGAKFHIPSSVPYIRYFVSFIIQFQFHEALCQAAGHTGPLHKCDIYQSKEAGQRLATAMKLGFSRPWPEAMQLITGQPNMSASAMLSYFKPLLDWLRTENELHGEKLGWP
Description: as §1

nACE [4] = molecular target: nACE (Homo sapiens, UniProt P12821); experiment: Inhibitor binding kinetics, modified Abz-FRK(Dnp)P-OH assay, wild-type N-domain; type: biochemical; set-up: The truncated (single domain) wild-type N-domain (nACE); made in house; host or cells: CHO-K1; details: nACE; Morrison plot; 50 mM HEPES pH 6.8, 200 mM NaCl, 10 μM ZnCl2; mean ± SD
nACE (Homo sapiens, UniProt P12821), sequence (P12821 40-624 limits assumed): as the sequence (P12821 40-624 S289T/E291S/D383E/S386V/T387V/E460D) above, with T250S, S252E, E344D, V347S, V348T, D421E counted along it
Description: as §1

nACE [5] = experiment: as above; type: biochemical; details: Ki cACE / Ki nACE (N-selectivity)
Description: as §1

[6] = Integrity of omapatrilat at ambient temperature monitored by HPLC (dimer formation); type: physicochemical
Description: The fluorogenic substrate Abz-FRK(Dnp)P-OH was a kind gift from Prof A.K. Carmona, Universidade Federal de São Paulo. The peptide was dissolved in 100% DMSO and the concentration determined by measuring the absorbance at 365 nm and extinction coefficient of 17 300 M^−1 cm^−1. Subsequent dilutions from the 1 mM stock of were made in assay buffer (50 mM HEPES, pH 6.8, 10 μM ZnCl2, 200 mM NaCl). […] KetoACE-13 was dissolved in 100% methanol to a stock concentration of 50 mM, followed by dilution in deionized distilled water to 10 mM. Since the dimerization of omapatrilat has been previously described, fresh 10 mM stocks of inhibitor were prepared in DMSO directly prior to kinetic analysis. The integrity of omapatrilat at ambient temperature was monitored at 50 µM by HPLC (Agilent 1260 Infinity HPLC System with a Poroshell 120 EC-C 18 column) over the timeframe of each assay, as previously described. A 20 µl injection volume was used with a 0.5 ml/min flow rate with A: 1% ACN, 0.1% TFA; B: 95% ACN, 0.1% TFA; and 0–100% B over 10 min; 214 nm.
Figure 2 . Effect of mutation on N-selective inhibition, integrity of omapatrilat at ambient temperature as monitored by HPLC and SDS–PAGE gel illustrating the decreased molecular mass of the active site mutant N389-S2_S′-nACE. (A) Inhibitor binding affinities (Ki values) for wild-type cACE or nACE mutants are shown on a log scale relative to nACE with error bars representing mean ± SD of at least two independent experiments. (B) Omapatrilat (50 μM in assay buffer) was analyzed using a Poroshell 120 EC-C 18 column on the Agilent 1260 infinity HPLC system. Twenty microliters of the sample was injected onto the column immediately after preparation or following incubation at ambient temperature for 1, 2 or 3 h. Conditions: A: 1% ACN, 0.1% TFA; B: 95% ACN, 0.1% TFA; 0–100% B over 10 min; 0.5 ml/min, 214 nm. […] (C) SDS–PAGE of purified nACE proteins (1) fully glycosylated S2_S′-nACE, (2) minimally glycosylated N389-nACE and (3) minimally glycosylated N389-S2_S′-nACE.

[7] = molecular target: Wild-type N-domain of angiotensin-converting enzyme (nACE)
[8] = molecular target: Wild-type C-domain of angiotensin-converting enzyme (cACE)
[9] = molecular target: S2_S′-nACE (N-domain mutant S260T, E262S, D354E, S357V, T358V, Y369F, R381E and E431D)
[10] = molecular target: S2-nACE (N-domain mutant Y369F and R381E)
[11] = molecular target: S′-nACE (N-domain mutant S260T, E262S, D354E, S357V, T358V and E431D)

Row | Molecule | decrease in binding affinity compared with nACE [1] | decrease in binding affinity compared with nACE [2] | binding affinity lower than that of cACE [3] | decrease in binding affinity compared with nACE [3] | Ki (nACE [4]) | Selectivity (Ki cACE/Ki nACE or mutant) [1] | Ki [1] | Selectivity (Ki cACE/Ki nACE or mutant) (nACE [5]) | Selectivity (Ki cACE/Ki nACE or mutant) [2] | Ki [2] | Selectivity (Ki cACE/Ki nACE or mutant) [3] | Ki [3] | Selectivity (Ki cACE/Ki nACE or mutant) (cACE) | Ki (cACE) | further results
1 | C[C@H](N[C@@H](CCc1ccccc1)C(=O)O)C(=O)N1CCC[C@H]1C(=O)O [Enalaprilat, enalaprilat, reference compound] | 2.5 fold | 2 fold | 19 fold | 4 fold |  |  |  |  |  |  |  |  |  |  | greater affinity to cACE than nACE (cACE; cACE relative to nACE): 5 fold
2 | CC(C)(C)OC(=O)NC(CC(=O)O)C(=O)NC(Cc1ccccc1)C(=O)CCC(=O)N1CCCC1C(=O)O (stereo not drawn) [KetoACE13] | 3 fold |  | 6 fold |  | 1000 ± 270 nM | 3 | 2990 ± 1000 nM | 8 | 0.5 | 17800 nM | 0.2 | 47800 nM | 1 | 8250 ± 430 nM | 
3 | O=C(N[C@H]1CCS[C@H]2CCC[C@@H](C(=O)O)N2C1=O)[C@@H](S)Cc1ccccc1 [Omapatrilat, omapatrilat, reference compound] |  |  |  |  | 0.37 ± 0.05 nM | 1 | 0.49 ± 0.04 nM | 2 | 2 | 0.43 ± 0.13 nM | 2 | 0.29 ± 0.01 nM | 1 | 0.7 ± 0.09 nM | fraction of dimer detected ([6]; 50 μM in assay buffer (50 mM HEPES pH 6.8), immediately after solubilization): 2.56%; increase in fraction of dimer ([6]; 50 μM in assay buffer, after 1 h at ambient temperature): 0.86%; fraction of dimer detected ([6]; 50 μM in assay buffer, after 3 h of incubation at ambient temperature): 11%
4 | CC(NC(C(=O)O)C1CCCN1C(=O)C(N)CC(=O)O)C(=O)N1CCCC1C(=O)O (stereo not drawn) [SG6] | 11 fold | 474 fold |  | 784 fold | 0.093 ± 0.02 nM | 70 | 1.09 ± 0.1 nM | 825 | 1.7 | 44 ± 2.8 nM | 1.1 | 72.9 ± 7.5 nM | 1 | 76.8 ± 4.3 nM | 
5 | B1 |  |  |  |  |  |  |  |  |  |  |  |  |  |  | Km of Abz-FRK(Dnp)P-OH hydrolysis (Michaelis-Menten model, initial velocities; 50 mM HEPES pH 6.8, 200 mM NaCl, 10 µM ZnCl2, ambient temperature) [7]: 7.54 μM; Km of Abz-FRK(Dnp)P-OH hydrolysis (Michaelis-Menten model, initial velocities; 50 mM HEPES pH 6.8, 200 mM NaCl, 10 µM ZnCl2, ambient temperature) [8]: 6.3 μM; Km of Abz-FRK(Dnp)P-OH hydrolysis (Michaelis-Menten model, initial velocities; 50 mM HEPES pH 6.8, 200 mM NaCl, 10 µM ZnCl2, ambient temperature) [9]: 12.4 μM; Km of Abz-FRK(Dnp)P-OH hydrolysis (Michaelis-Menten model, initial velocities; 50 mM HEPES pH 6.8, 200 mM NaCl, 10 µM ZnCl2, ambient temperature) [10]: 11.9 μM; Km of Abz-FRK(Dnp)P-OH hydrolysis (Michaelis-Menten model, initial velocities; 50 mM HEPES pH 6.8, 200 mM NaCl, 10 µM ZnCl2, ambient temperature) [11]: 4.51 μM
